“Also recorded” adds a separate entry of the source.
Tests used:
SD rats = test: Heritability test of F1 phenodeviant rats bred to SD rats; type: in vivo, rat
Method: (§1) ENU mutagenesis rat protocol: Pathogen-free inbred Wistar Furth (WF), inbred Fischer-344 (F344) and outbred Sprague Dawley (SD) male and female rats were obtained from Harlan Sprague Dawley, Inc. (Indianapolis, Ind.). All rats were given Teklad Lab Blox chow (Harlan Teklad, Madison, Wis.), acidified water ad libitum, and were housed under a 12-h light/12-h dark cycle. After a one week acclimation period, nine-week-old male rats were administered ENU as a single intraperitoneal injection; for a split dose, rats were injected with ENU once at 9 weeks of age and again at 10 weeks of age. One gram of ENU (Sigma) was dissolved in 10 mls of 95% ethanol and then diluted with 90 mls of phosphate citrate buffer prior to injection. All injections of ENU were given in the morning hours. To characterize the effect of ENU treatment on fertility in the various rat strains, mutagenized males were paired with untreated females of the same strain for consecutive 2-3 week periods, beginning 3-5 weeks after the first ENU treatment and continuing a minimum of 26 weeks post-ENU. We observed female rats for vaginal plugs, gross pregnancy and date of birth/size of litters. For our phenotypic mutant (phenodeviant) rat screening experiments, ENU-treated SD male rats were bred with SD female rats and all F1 pups were visually checked for gross abnormalities in physical development or behavior as compared to littermates at least twice prior to weaning at approximately 21 days of age. A subset of the F1 phenodeviant rats identified was bred to SD rats to determine inheritance of the observed phenotypic mutation. Several of the heritable phenodeviant rat lines are currently being maintained and backcrossed to eliminate residual ENU-induced genetic changes not associated with the phenotypic mutation.
Phenodeviant rat production: Multiple ENU dosing protocols in the SD rat strain determine their germline mutagenic potential by breeding ENU-treated SD males to females of the same strain to produce F1 offspring. These pups were examined for readily observable physical or behavioral abnormalities. Phenodeviants were identified at all doses listed in Table 2 with a variety of abnormalities observed. Phenodeviant F1 pups were born at various times between 6-52 weeks post-ENU treatment of male founders. The most frequent abnormalities visually identified were those of the eyes, tail, and growth. […] Selected phenodeviant rat F1 pups were maintained and bred to determine the heritability of the physical abnormalities (Table 3). […] These abnormalities were diverse (Table 4).

male rats = test: Toxicity and lifespan observation of ENU-treated male rats; type: in vivo, rat
Method: as §1, with “For our phenotypic mutant (phenodeviant) rat screening experiments, ENU-treated SD male rats were bred with SD female rats and all F1 pups were visually checked for gross abnormalities in physical development or behavior as compared to littermates at least twice prior to weaning at approximately 21 days of age. A subset of the F1 phenodeviant rats identified was bred to SD rats to determine inheritance of the observed phenotypic mutation. Several of the heritable phenodeviant rat lines are currently being maintained and backcrossed to eliminate residual ENU-induced genetic changes not associated with the phenotypic mutation.” left out

male rats (SD, F344, WF) = test: Effects of ENU treatment on male rat fertility (breeding to same-strain females); type: in vivo; conditions: for % fertile males: weeks 7-26 post-ENU
Method: as §1
Optimization of ENU dosages: We examined several rat strains, inbred WF and F344 rats and outbred SD rats in which groups of male rats were given either single or split doses of ENU. These male rats were then bred to same-strain female rats at various times post-ENU to test for fertility (Table 1). The three rat strains were unable to regain fertility following large doses of ENU. The WF strain was extremely sensitive to ENU-induced sterility. […] The SD and F344 strains responded in a similar manner with maximum ENU doses of 100-150 mg/kg, allowing for some percentage of rats to remain fertile or recover fertility; however, the F344 strain was more sensitive to split dose protocols compared to the SD rats. […] This phenomenon was also true for the both the F344 and WF rat strains. […] It also appears from the SD and F344 fertility data shown in Table 1 that these rat strains were more likely to remain fertile or regain fertility following a split dose of ENU versus a single dose when the total dose exposure was equal. In addition, average litter size was reduced in both the SD and F344 strains around weeks 1-9 post-ENU (data not shown), the same time period in which we observed reduced fertility in the ENU-treated males.

CCN(N=O)C(N)=O [ENU, N-ethyl-N-nitrosourea]
ENU-induced heritable phenotype, observed phenotype (SD rats; Line 18, F1 founder female, initial ENU dose 2 × 60 mg/kg): crooked tail & slit eyes
Heritable phenotype confirmed in multiple litters (SD rats; Line 18, initial ENU dose 2 × 60 mg/kg): yes
ENU-induced heritable phenotype, observed phenotype (SD rats; Line 19, F1 founder male, initial ENU dose 2 × 50 mg/kg): growth on tail
Heritable phenotype confirmed in multiple litters (SD rats; Line 19, initial ENU dose 2 × 50 mg/kg): yes
ENU-induced heritable phenotype, observed phenotype (SD rats; Line 28, F1 founder female, initial ENU dose 2 × 60 mg/kg): red ring eyes
Heritable phenotype confirmed in multiple litters (SD rats; Line 28, initial ENU dose 2 × 60 mg/kg): yes
ENU-induced heritable phenotype, observed phenotype (SD rats; Line 29, F1 founder female, initial ENU dose 2 × 60 mg/kg): oblong face
Heritable phenotype confirmed in multiple litters (SD rats; Line 29, initial ENU dose 2 × 60 mg/kg): yes
ENU-induced heritable phenotype, observed phenotype (SD rats; Line 32, F1 founder female, initial ENU dose 2 × 60 mg/kg): slit eyes
Heritable phenotype confirmed in multiple litters (SD rats; Line 32, initial ENU dose 2 × 60 mg/kg): yes
ENU-induced heritable phenotype, observed phenotype (SD rats; Line 38, F1 founder male, initial ENU dose 2 × 60 mg/kg): curved tail
Heritable phenotype confirmed in multiple litters (SD rats; Line 38, initial ENU dose 2 × 60 mg/kg): yes
ENU-induced heritable phenotype, observed phenotype (SD rats; Line 42, F1 founder female, initial ENU dose 2 × 60 mg/kg): bald spots
Heritable phenotype confirmed in multiple litters (SD rats; Line 42, initial ENU dose 2 × 60 mg/kg): yes
ENU-induced heritable phenotype, observed phenotype (SD rats; Line 60, F1 founder female, initial ENU dose 2 × 60 mg/kg): scaly skin
Heritable phenotype confirmed in multiple litters (SD rats; Line 60, initial ENU dose 2 × 60 mg/kg, only one litter to date): no^a
ENU-induced heritable phenotype, observed phenotype (SD rats; Line 61, F1 founder male, initial ENU dose 2 × 60 mg/kg): swollen feet
Heritable phenotype confirmed in multiple litters (SD rats; Line 61, initial ENU dose 2 × 60 mg/kg, only one litter to date): no^a
Heritable phenotype confirmed in multiple litters (SD rats; Line 63, initial ENU dose 2 × 60 mg/kg): yes
# phenodeviants heritable (SD rats; SD, ENU dose 100 mg/kg): 0
# phenodeviants non-heritable (SD rats; SD, ENU dose 100 mg/kg): 4
# phenodeviants unknown (sterile, not evaluated, being evaluated or died) (SD rats; SD, ENU dose 100 mg/kg): 4
# phenodeviants heritable (SD rats; SD, ENU dose 120 mg/kg): 0
# phenodeviants non-heritable (SD rats; SD, ENU dose 120 mg/kg): 2
# phenodeviants unknown (sterile, not evaluated, being evaluated or died) (SD rats; SD, ENU dose 120 mg/kg): 1
# phenodeviants heritable (SD rats; SD, ENU dose 2 × 50 mg/kg): 1
# phenodeviants non-heritable (SD rats; SD, ENU dose 2 × 50 mg/kg): 4
# phenodeviants unknown (sterile, not evaluated, being evaluated or died) (SD rats; SD, ENU dose 2 × 50 mg/kg): 2
# phenodeviants heritable (SD rats; SD, ENU dose 2 × 60 mg/kg): 9
# phenodeviants non-heritable (SD rats; SD, ENU dose 2 × 60 mg/kg): 9
# phenodeviants unknown (sterile, not evaluated, being evaluated or died) (SD rats; SD, ENU dose 2 × 60 mg/kg): 61
heritability of mutations in phenodeviants tested (SD rats; SD, single dose protocols): none of the six phenodeviant rats tested showed heritable mutations
lifespan and tumors of fertile mutagenized male rats (male rats; about one year post-ENU): shortened, with many developing skin and kidney tumors and lymphomas at approximately one year of age
acute toxicity to male rats (male rats; all doses of Table 1, SD, F344, WF): none of the ENU doses used were toxic to the male rats; also recorded: None of the doses listed in Table 1 were acutely toxic
fertility of treated males (male rats (SD, F344, WF); F344, 75 mg/kg): All rats remained fertile
rats that maintained fertility (male rats (SD, F344, WF); F344, 100 mg/kg given in either a single or split dose): about 60%
% fertile males (male rats (SD, F344, WF); F344, single dose 75 mg/kg i.p.): 100%
% fertile males (male rats (SD, F344, WF); F344, single dose 100 mg/kg i.p.): 67%
% fertile males (male rats (SD, F344, WF); F344, single dose 120 mg/kg i.p.): 0%
% fertile males (male rats (SD, F344, WF); F344, split dose 2 × 50 mg/kg): 60%
% fertile males (male rats (SD, F344, WF); F344, split dose 2 × 60 mg/kg): 40%
% fertile males (male rats (SD, F344, WF); F344, split dose 2 × 75 mg/kg): 0%
% fertile males (male rats (SD, F344, WF); F344, split dose 2 × 100 mg/kg): 0%
maximum ENU doses allowing some percentage of rats to remain fertile or recover fertility (male rats (SD, F344, WF); SD and F344 strains): 100 to 150 mg/kg
average litter size (male rats (SD, F344, WF); SD and F344 strains, around weeks 1-9 post-ENU (data not shown)): reduced
% fertile males (male rats (SD, F344, WF); SD, single dose 75 mg/kg i.p.): 100%
% fertile males (male rats (SD, F344, WF); SD, single dose 100 mg/kg i.p.): 80%
% fertile males (male rats (SD, F344, WF); SD, single dose 120 mg/kg i.p.): 33%
% fertile males (male rats (SD, F344, WF); SD, single dose 150 mg/kg i.p.): 0%
% fertile males (male rats (SD, F344, WF); SD, single dose 200 mg/kg i.p.): 0%
fertility of treated males (male rats (SD, F344, WF); SD, split dose 2×50 mg/kg or 2×60 mg/kg, after a brief recovery period): fully fertile
% fertile males (male rats (SD, F344, WF); SD, split dose 2 × 50 mg/kg): 100%
% fertile males (male rats (SD, F344, WF); SD, split dose 2 × 60 mg/kg): 100%
% fertile males (male rats (SD, F344, WF); SD, split dose 2 × 75 mg/kg): 20%
% fertile males (male rats (SD, F344, WF); SD, split dose 2 × 100 mg/kg): 0%
maximum total dose after which fertile males were obtained (male rats (SD, F344, WF); WF strain): 50 mg/kg
male rats permanently sterilized (male rats (SD, F344, WF); WF, 25 mg/kg single injection): approximately 70%
% fertile males (male rats (SD, F344, WF); WF, single dose 25 mg/kg i.p.): 30%
% fertile males (male rats (SD, F344, WF); WF, single dose 35 mg/kg i.p.): 33%
% fertile males (male rats (SD, F344, WF); WF, single dose 50 mg/kg i.p.): 25%
% fertile males (male rats (SD, F344, WF); WF, single dose 75 mg/kg i.p.): 0%
% fertile males (male rats (SD, F344, WF); WF, single dose 100 mg/kg i.p.): 0%
% fertile males (male rats (SD, F344, WF); WF, split dose 2 × 15 mg/kg): 17%
% fertile males (male rats (SD, F344, WF); WF, split dose 2 × 25 mg/kg): 17%
% fertile males (male rats (SD, F344, WF); WF, split dose 2 × 50 mg/kg): 0%
% fertile males (male rats (SD, F344, WF); WF, split dose 2 × 75 mg/kg): 0%
